# Reference: patent EP3917907B1, “MODULATORS OF POTASSIUM ION CHANNELS AND USES THEREOF” (Universitá Degli Studi Di Salerno, priority 2019, dated 2020)
# Columns and labels:
# Kv7.2 = molecular target: T1, Kv7.2 (Homo sapiens, UniProt O43526); assay: Whole-cell patch-clamp on CHO cells transiently expressing Kv7.2; type: cell-based; conditions: CHO cells, mean±SEM, >1 activating, <1 inhibiting; for Idrug/Ictl at 0 mV: ratio of ramp-evoked Kv7.2 current amplitude in presence and absence of drug at 0 mV; for Idrug/Ictl at -40 mV: ratio of ramp-evoked Kv7.2 current amplitude in presence and absence of drug at -40 mV
# T1 construct: expressed in transfected cells; host or cells: CHO cells (ATCC CRL-9618), transient transfection, pcDNA3.1(+)
# Protocol: According to the experimental protocol, these plasmids were expressed individually or in combination (in particular of Kv7.2 and Kv7.3), together with a plasmid-expressing enhanced green fluorescent protein (Clontech, Palo Alto, CA) used as a transfection marker. Total cDNA in the transfection mixture was kept at 4 µg. CHO cells were grown in 100-mm plastic Petri dishes in Dulbecco's modified Eagle's medium containing 10% fetal bovine serum, nonessential amino acids (0.1 mM), penicillin (50 U/ml), and streptomycin ([…]) in a humidified atmosphere at 37°C with 5% CO2. The cells were plated on glass coverslips coated with poly-L-lysine, and transfected one day after plating with the appropriate cDNA using Lipofectamine 2000 (Life Technologies), according to the manufacturer's protocol.
# Currents from CHO cells were recorded at room temperature (20-22°C) 24 hours after trasfection using the whole-cell configuration of the patch-clamp technique, with glass micropipettes of 3-5 MΩ resistance. During the recording, constant perfusion of extracellular solution was maintained. The extracellular solution contained (in mM): 138 NaCl, 2 CaCl2, 5.4 KCl, 1 MgCl2, 10 glucose, and 10 HEPES, at pH 7.4, adjusted with NaOH. The pipette (intracellular) solution contained (in mM): 140 KCl, 2 MgCl2, 10 EGTA, 10 HEPES, 5 Mg^2+-ATP, at pH 7.3-7.4, adjusted with KOH. Currents were recorded using an Axopatch-200A amplifier, filtered at 5 kHz, and digitized using a DigiData 1440A (Molecular Devices). The pCLAMP software (version 10.2, Molecular Devices) was used for data acquisition and analysis. To evaluate the activity of exemplary compounds on Kv7.2 (see Table 1), as well as on Kv7.1, Kv7.2/7.3, Kv7.3 and Kv7.4 channels for selected compounds (see Table 2), the cells were clamped at -80 mV and currents were elicited by 3-s voltage ramps from -80 mV to +20 mV in the presence and absence of each compound. […] The effects of drugs were expressed as shift in the ramp-voltage (ΔV) calculated at 20% of the maximal current (Miceli et al, Proc Natl Acad Sci U S A. 2013, 110(11):4386-91). Curves were fitted using the following equation: y=max/(1+x/EC50)n, where x is the drug concentration, n is the Hill coefficient and max is the maximal value achieved, as previously described (Ambrosino et al, Br J Pharmacol. 2013, 168(6):1430-1444). Data analysis and fit were performed using Sigmaplot (version 12.3).
# Ramp-evoked Kv7.2 currents were analyzed by measuring the currents at -40 mV (a membrane potential value close to the activation threshold) and at 0 mV (a membrane potential value at which Kv7.2 conductance is largely saturated). In particular, -40 mV represents the threshold potential for spike initiation and 0 mV represents instead the membrane potential value at which maximal conductance of the channel is achieved.
# In Table 1, the effect of exemplary compounds of the invention is expressed as the ratio between current amplitude in the presence (Idrug) and absence (Ictl) of the drug at these two membrane voltages. […]
# [1] = Solution stability (HPLC, extracellular solution, ambient temperature); type: physicochemical; conditions: percentage of degradation after 6 h at ambient temperature; 100 ppm in extracellular solution pH 7.4
# Protocol: (§1) In order to study the solution stability and photostability of the potassium channel modulators object of the present invention, a stock solution of the proper analyte (1 mg/mL) in dimethylsulfoxide (DMSO) has been prepared. This solution has been then diluted to a concentration of 100 ppm using extracellular solution containing (in mM): 138 NaCl, 2 CaCl2, 5.4 KCl, 1 MgCl2, 10 glucose, and 10 HEPES, at pH 7.4, adjusted with NaOH. To measure solution stability, the diluted solutions have been maintained at ambient temperature for 6 h. To measure photostability, the diluted solutions have been irradiated for 6 h using a Oriel Sol3A Solar Simulator (Newport corporation, Irvine, CA, USA) with a 12x12 inches output beam. Aliquots of solution have been withdrawn after 6h and analyzed by HPLC using a Kinetex C18, 150 mm × 4.6 mm × 2.6 µm (Phenomenex, Bologna, Italy) as stationary phase and a mobile phase constituted by A: H2O/CH3CN (80:20) and B: CH3CN. Gradient elution has been performed from 20% to 90% of B in 7.50 minutes and from 90% to 20% of B in 1 minute. The pump flux has been set to 1.5 mL/min. Column has been thermostatted at 40°C during analysis. Results are espressed in Table 3 as percentage of degradation of the product calculated as ratio between the peak area of the analyte at time 0 (Pa0) and after 6h (Pa6) using the following formula: % degradation = (Pa0−Pa6)/Pa0 *100. [formula]
# [2] = Photostability (HPLC, solar simulator irradiation); type: physicochemical; conditions: percentage of degradation after 6 h irradiation with solar simulator; 100 ppm in extracellular solution pH 7.4
# Protocol: as §1
Compound,Idrug/Ictl at 0 mV (Kv7.2),Idrug/Ictl at -40 mV (Kv7.2),Solution stability [1],Photostability [2]
O=C(Nc1ccc2c(c1)CCN2Cc1ccc(F)cc1)NC1CCCCC1 [1-cyclohexyl-3-(1-(4-fluorobenzyl)indolin-5-yl)urea],0.85±0.12,0.95±0.16,A (degradation lower than 20%),B (20%< degradation<40%)
O=S(=O)(CCC1CCCCC1)Nc1ccc2c(ccn2Cc2ccc(F)cc2)c1 [2-cyclohexyl-N-(1-(4-fluorobenzyl)-1H-indol-5-yl)ethane-1-sulfonamide],1.18±0.09,1.64±0.10,A (degradation lower than 20%),A (degradation lower than 20%)
"CC(C)(C)CC(=O)Nc1ccc2c(ccn2Cc2ccc(C(F)(F)F)cc2)c1 [3,3-dimethyl-N-(1-(4-(trifluoromethyl)benzyl)-1H-indol-5-yl)butanamide]",3.54±0.88,8.23±1.36,A (degradation lower than 20%),A (degradation lower than 20%)
COCCOCCC(=O)Nc1ccc2c(ccn2Cc2ccc(C(F)(F)F)cc2)c1 [3-(2-methoxyethoxy)-N-(1-(4-(trifluoromethyl)benzyl)-1H-indol-5-yl)propanamide],1.34±0.10,2.64±0.77,A (degradation lower than 20%),A (degradation lower than 20%)
"O=S(=O)(Nc1ccc2c(c1)CCN2Cc1ccc(C(F)(F)F)cc1C(F)(F)F)C1CCCCC1 [N-(1-(2,4-bis(trifluoromethyl)benzyl)indolin-5-yl)cyclohexanesulfonamide]",1.22±0.11,1.53±0.39,B (20%< degradation<40%),C (degradation > 40%)
"O=S(=O)(Nc1ccc2c(c1)CCN2Cc1ccc(F)cc1F)C1CCCCC1 [N-(1-(2,4-difluorobenzyl)indolin-5-yl)cyclohexanesulfonamide]",3.79±1.09,5.82±1.38,C (degradation > 40%),C (degradation > 40%)
O=C(Cc1ccc(Cl)cc1)N1CCc2cc(NS(=O)(=O)C3CCCCC3)ccc21 [N-(1-(2-(4-chlorophenyl)acetyl)indolin-5-yl)cyclohexanesulfonamide],1.18±0.08,1.45±0.08,A (degradation lower than 20%),B (20%< degradation<40%)

# Results, then the compound that gave them:
Idrug/Ictl at 0 mV (Kv7.2),Idrug/Ictl at -40 mV (Kv7.2),Solution stability [1],Photostability [2],Compound
0.86±0.01,1.50±0.16,A (degradation lower than 20%),A (degradation lower than 20%),COCCOCC(=O)Nc1ccc2c(ccn2Cc2ccc(C(F)(F)F)cc2)c1 [2-(2-methoxyethoxy)-N-(1-(4-(trifluoromethyl)benzyl)-1H-indol-5-yl)acetamide]
1.71±0.12,2.37±0.40,A (degradation lower than 20%),A (degradation lower than 20%),O=C(CC1CCCCC1)Nc1ccc2c(c1)CCN2Cc1ccc(F)cc1 [2-cyclohexyl-N-(1-(4-fluorobenzyl)indolin-5-yl)acetamide]
0.48±0.07,0.80±0.14,A (degradation lower than 20%),B (20%< degradation<40%),"CC(C)[C@H]1CC[C@H](C)C[C@@H]1OC(=O)Nc1ccc2c(c1)CCN2Cc1ccc(F)cc1 [(1S,2R,5S)-2-isopropyl-5-methylcyclohexyl (1-(4-fluorobenzyl)indolin-5-yl)carbamate]"
2.11±0.18,4.56±1.11,C (degradation > 40%),C (degradation > 40%),"O=S(=O)(Nc1ccc2c(c1)CCN2Cc1ccc(F)c(F)c1)C1CCCCC1 [N-(1-(3,4-difluorobenzyl)indolin-5-yl)cyclohexanesulfonamide]"
